Measurements taken from patent US9580416B2, “Inhibitors of Bruton's tyrosine kinase” (PHARMACYCLICS LLC, priority 2014, dated 2017).
Read-outs that look alike come from different tables or passages of the source.

Columns and labels:
Type in all cases: biochemical
EGFR = EGFR (Homo sapiens, UniProt P00533); assay: Inhibition of a panel of kinases, in vitro HotSpot kinase assay: EGFR
Protocol: (§1) The degree of inhibition of a panel of kinases is determined using the in vitro HotSpot kinase assay (purified enzymes, ^33P-ATP, an appropriate substrate and 1 uM ATP).

Btk = Btk (Homo sapiens, UniProt Q06187); assay: Btk kinase activity, TR-FRET assay
Sequence of Btk (Q06187 whole entry): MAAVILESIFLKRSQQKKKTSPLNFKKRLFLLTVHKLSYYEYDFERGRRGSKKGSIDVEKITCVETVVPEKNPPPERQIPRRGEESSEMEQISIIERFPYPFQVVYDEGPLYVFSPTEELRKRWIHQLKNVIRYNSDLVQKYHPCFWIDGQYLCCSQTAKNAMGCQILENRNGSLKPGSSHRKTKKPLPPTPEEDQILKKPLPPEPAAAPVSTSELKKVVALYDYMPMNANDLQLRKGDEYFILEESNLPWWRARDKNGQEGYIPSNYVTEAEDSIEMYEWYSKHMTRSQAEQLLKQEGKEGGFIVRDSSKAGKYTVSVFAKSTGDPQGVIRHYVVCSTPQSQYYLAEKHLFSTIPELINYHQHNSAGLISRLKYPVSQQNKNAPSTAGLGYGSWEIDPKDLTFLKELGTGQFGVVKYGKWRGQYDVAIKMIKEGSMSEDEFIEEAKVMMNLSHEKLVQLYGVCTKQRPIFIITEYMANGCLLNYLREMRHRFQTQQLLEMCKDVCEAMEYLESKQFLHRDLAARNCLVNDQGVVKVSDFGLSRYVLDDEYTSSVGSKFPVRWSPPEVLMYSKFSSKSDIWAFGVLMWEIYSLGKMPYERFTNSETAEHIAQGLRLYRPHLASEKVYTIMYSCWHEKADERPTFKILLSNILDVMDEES
Summary of the method: (§2)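 Enzyme (Btk 0.5 nM; Lck 6 nM) reacted 1 h with inhibitor, ATP at Km and biotin-peptide substrate in pH 7.4 buffer, 10% DMSO. Phosphopeptide detected by Eu-p-Tyr100 antibody plus streptavidin-APC (665/615 nm). IC50 calculated from fitted Ki(app) via ATP/Km correction plus half total enzyme.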

Lck = Lck (Homo sapiens, UniProt P06239); assay: Lck kinase activity, TR-FRET assay
Sequence of Lck (P06239 whole entry, species assumed): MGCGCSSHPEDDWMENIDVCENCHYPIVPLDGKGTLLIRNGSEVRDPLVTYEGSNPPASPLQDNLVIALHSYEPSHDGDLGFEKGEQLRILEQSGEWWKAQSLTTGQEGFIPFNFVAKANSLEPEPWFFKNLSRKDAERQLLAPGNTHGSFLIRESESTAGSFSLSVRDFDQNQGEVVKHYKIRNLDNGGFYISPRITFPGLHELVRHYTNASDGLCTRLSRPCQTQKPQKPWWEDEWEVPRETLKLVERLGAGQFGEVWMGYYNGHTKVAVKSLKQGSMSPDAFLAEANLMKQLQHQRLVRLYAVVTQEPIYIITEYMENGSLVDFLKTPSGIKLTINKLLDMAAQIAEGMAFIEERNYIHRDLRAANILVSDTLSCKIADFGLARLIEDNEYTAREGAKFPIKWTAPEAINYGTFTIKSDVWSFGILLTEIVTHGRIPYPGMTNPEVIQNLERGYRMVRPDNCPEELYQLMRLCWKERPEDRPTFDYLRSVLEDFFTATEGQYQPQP
Summary of the method: as §2

JAK3 = biological target: T1, JAK3 (Homo sapiens, UniProt P52333); assay: Inhibition of a panel of kinases, in vitro HotSpot kinase assay: JAK3
T1 sequence (P52333 1-1124): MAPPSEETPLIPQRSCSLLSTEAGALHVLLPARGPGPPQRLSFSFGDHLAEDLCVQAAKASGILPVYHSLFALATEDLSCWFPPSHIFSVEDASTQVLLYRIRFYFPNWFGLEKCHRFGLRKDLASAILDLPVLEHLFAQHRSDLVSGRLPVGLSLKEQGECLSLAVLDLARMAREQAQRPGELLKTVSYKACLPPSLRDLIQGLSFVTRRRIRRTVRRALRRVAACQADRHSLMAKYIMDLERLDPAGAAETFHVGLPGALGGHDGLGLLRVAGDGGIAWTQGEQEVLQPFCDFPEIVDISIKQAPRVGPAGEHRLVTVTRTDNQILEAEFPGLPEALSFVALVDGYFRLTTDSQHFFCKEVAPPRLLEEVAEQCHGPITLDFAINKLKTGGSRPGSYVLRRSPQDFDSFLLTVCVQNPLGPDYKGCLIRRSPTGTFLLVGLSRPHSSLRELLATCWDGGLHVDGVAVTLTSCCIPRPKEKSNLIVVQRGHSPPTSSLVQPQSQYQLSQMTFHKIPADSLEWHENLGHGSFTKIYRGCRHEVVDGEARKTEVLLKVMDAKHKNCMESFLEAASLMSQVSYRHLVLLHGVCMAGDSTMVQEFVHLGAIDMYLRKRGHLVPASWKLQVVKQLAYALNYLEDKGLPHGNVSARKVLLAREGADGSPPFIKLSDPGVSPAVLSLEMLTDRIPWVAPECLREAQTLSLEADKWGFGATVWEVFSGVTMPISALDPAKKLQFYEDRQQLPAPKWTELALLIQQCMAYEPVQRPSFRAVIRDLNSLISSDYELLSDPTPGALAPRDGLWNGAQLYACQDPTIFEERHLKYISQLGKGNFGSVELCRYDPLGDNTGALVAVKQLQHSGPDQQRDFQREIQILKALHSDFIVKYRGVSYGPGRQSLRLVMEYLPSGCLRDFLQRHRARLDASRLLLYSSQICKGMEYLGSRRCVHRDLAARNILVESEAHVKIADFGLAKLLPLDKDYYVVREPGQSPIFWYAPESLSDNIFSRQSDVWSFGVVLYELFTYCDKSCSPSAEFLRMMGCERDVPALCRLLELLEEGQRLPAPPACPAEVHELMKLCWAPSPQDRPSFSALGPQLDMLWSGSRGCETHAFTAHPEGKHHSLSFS
Protocol: as §1

Sequence of EGFR (P00533 25-1210): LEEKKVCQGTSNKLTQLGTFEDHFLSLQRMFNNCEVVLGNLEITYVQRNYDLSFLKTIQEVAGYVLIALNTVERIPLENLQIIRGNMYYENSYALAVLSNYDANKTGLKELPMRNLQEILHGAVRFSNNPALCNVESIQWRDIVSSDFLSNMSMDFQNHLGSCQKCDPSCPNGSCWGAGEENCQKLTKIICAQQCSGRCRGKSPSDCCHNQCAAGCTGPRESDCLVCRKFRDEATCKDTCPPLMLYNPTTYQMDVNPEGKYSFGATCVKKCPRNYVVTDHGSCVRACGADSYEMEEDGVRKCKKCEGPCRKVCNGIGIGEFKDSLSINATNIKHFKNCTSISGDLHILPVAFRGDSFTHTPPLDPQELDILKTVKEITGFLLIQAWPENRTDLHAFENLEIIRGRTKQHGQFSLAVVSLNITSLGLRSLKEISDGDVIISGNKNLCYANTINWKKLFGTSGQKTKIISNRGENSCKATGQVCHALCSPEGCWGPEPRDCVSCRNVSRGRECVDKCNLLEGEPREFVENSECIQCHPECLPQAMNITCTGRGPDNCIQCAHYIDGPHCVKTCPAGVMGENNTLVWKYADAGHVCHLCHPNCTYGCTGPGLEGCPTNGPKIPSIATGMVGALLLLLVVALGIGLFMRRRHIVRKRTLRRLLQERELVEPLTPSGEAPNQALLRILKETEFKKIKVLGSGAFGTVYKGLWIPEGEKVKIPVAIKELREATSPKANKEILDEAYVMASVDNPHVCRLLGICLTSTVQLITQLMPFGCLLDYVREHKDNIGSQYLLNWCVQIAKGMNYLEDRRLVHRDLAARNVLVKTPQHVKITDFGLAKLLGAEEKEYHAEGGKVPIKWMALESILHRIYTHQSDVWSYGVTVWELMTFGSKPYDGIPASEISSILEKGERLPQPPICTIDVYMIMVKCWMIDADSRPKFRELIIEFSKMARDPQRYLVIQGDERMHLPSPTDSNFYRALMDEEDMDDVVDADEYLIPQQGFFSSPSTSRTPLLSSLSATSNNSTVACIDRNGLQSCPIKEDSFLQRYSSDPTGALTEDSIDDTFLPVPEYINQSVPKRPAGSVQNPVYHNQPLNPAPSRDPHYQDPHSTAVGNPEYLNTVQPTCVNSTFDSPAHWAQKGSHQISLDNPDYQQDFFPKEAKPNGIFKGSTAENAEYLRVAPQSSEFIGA

SMILES	IC50 (EGFR)	IC50 (Btk; read-out: Btk (IC50))	IC50 (Lck; read-out: LCK (IC50))	IC50 (JAK3)	IC50 (Btk)	IC50 (Lck)
Cc1ccnc(NC(=O)c2ccc(Oc3ccnc4[nH]nc(N[C@@H]5CCCN(C(=O)c6ccccn6)C5)c34)cc2)c1 [compound 110, N-(4-methylpyridin-2-yl)-4-[(3-{[(3R)-1-(pyridine-2-carbonyl)piperidin-3-yl]amino}-1H-pyrazolo[3,4-b]pyridin-4-yl)oxy]benzamide]	> 10000 nM	< 100 nM	1000 to 10000 nM	> 10000 nM	–	–
CC#CC(=O)N1CCC[C@@H](Nc2n[nH]c3nccc(Oc4ccc(C(=O)Nc5ncc(C)s5)cc4)c23)C1 [compound 141]	> 10000 nM	< 100 nM	1000 to 10000 nM	1000 to 10000 nM	–	–
CCOP(=O)(CC(=O)N1CCC[C@@H](Nc2n[nH]c3nccc(Oc4ccc(C(=O)Nc5cc(C)ccn5)cc4)c23)C1)OCC [compound 272, (R)-diethyl 2-(3-(4-(4-(4-methylpyridin-2-ylcarbamoyl)phenoxy)-1H-pyrazolo[3,4-b]pyridin-3-ylamino)piperidin-1-yl)-2-oxoethylphosphonate]	> 10000 nM	< 100 nM	100 to 1000 nM	> 10000 nM	–	–
Cc1ccnc(NC(=O)c2ccc(Oc3ccnc4[nH]nc(N[C@@H]5CCCN(C(=O)Oc6ccccc6)C5)c34)cc2)c1 [compound 93, phenyl (3R)-3-[(4-{4-[(4-methylpyridin-2-yl)carbamoyl]phenoxy}-1H-pyrazolo[3,4-b]pyridin-3-yl)amino]piperidine-1-carboxylate]	> 10000 nM	–	–	> 10000 nM	100 to 1000 nM	1000 to 10000 nM
CC(=O)N1CC[C@@H](Nc2n[nH]c3nccc(Oc4cccc(C(=O)Nc5ccc(C(C)C)c(C)c5)c4)c23)C1 [compound 123, 3-[(3-{[(3R)-1-acetylpyrrolidin-3-yl]amino}-1H-pyrazolo[3,4-b]pyridin-4-yl)oxy]-N-[3-methyl-4-(propan-2-yl)phenyl]benzamide]	1000 to 10000 nM	100 to 1000 nM	< 100 nM	1000 to 10000 nM	–	–
CCNC(=O)N1CC[C@@H](Nc2n[nH]c3nccc(Oc4ccc(C(=O)Nc5cc(C(F)(F)F)ccn5)cc4)c23)C1 [compound 188]	1000 to 10000 nM	< 100 nM	100 to 1000 nM	> 10000 nM	–	–
C=CC(=O)N1CCC[C@@H](Nc2n[nH]c3nccc(Oc4ccc(C(=O)Nc5cc(C)on5)cc4)c23)C1 [compound 178]	1000 to 10000 nM	< 100 nM	> 10000 nM	100 to 1000 nM	–	–
CC#CC(=O)N1CCC[C@@H](Nc2n[nH]c3nccc(Oc4ccc(C(=O)Nc5cc(C(F)(F)F)ccn5)cc4)c23)C1 [compound 205, 4-[(3-{[(3R)-1-(but-2-ynoyl)piperidin-3-yl]amino}-1H-pyrazolo[3,4-b]pyridin-4-yl)oxy]-N-[4-(trifluoromethyl)pyridin-2-yl]benzamide]	1000 to 10000 nM	< 100 nM	100 to 1000 nM	> 10000 nM	–	–
CCNC(=O)N1CCC[C@@H](Nc2n[nH]c3nccc(Oc4ccc(C(=O)Nc5ccccn5)cc4)c23)C1 [compound 229, (3R)-N-ethyl-3-[(4-{4-[(pyridin-2-yl)carbamoyl]phenoxy}-1H-pyrazolo[3,4-b]pyridin-3-yl)amino]piperidine-1-carboxamide]	1000 to 10000 nM	< 100 nM	> 10000 nM	> 10000 nM	–	–

Second part, led by results:

IC50 (EGFR)	IC50 (Btk; read-out: Btk (IC50))	IC50 (Lck; read-out: LCK (IC50))	IC50 (JAK3)	SMILES	IC50 (Btk)	IC50 (Lck)
1000 to 10000 nM	< 100 nM	1000 to 10000 nM	100 to 1000 nM	C=CC(=O)N1CCC[C@@H](Nc2n[nH]c3nccc(Oc4ccc(-c5nc6ccccc6o5)cc4)c23)C1 [compound 194, 1-[(3R)-3-({4-[4-(1,3-benzoxazol-2-yl)phenoxy]-1H-pyrazolo[3,4-b]pyridin-3-yl}amino)piperidin-1-yl]prop-2-en-1-one]	–	–
1000 to 10000 nM	< 100 nM	1000 to 10000 nM	< 100 nM	C=CC(=O)N1CCC[C@@H](Nc2n[nH]c3nccc(Oc4ccc(C(=O)Nc5nc(C)cs5)cc4)c23)C1 [compound 143]	–	–
< 100 nM	< 100 nM	100 to 1000 nM	100 to 1000 nM	C=CC(=O)N1CCC[C@@H](Nc2n[nH]c3nccc(Oc4ccc(Oc5ccccc5)c(C)c4)c23)C1 [compound 153]	–	–
100 to 1000 nM	< 100 nM	100 to 1000 nM	100 to 1000 nM	Cc1ccnc(NC(=O)c2ccc(Oc3ccnc4[nH]nc(N[C@@H]5CCCN(C(=O)C#CCO)C5)c34)cc2)c1 [compound 282, (R)-4-(3-(1-(4-hydroxybut-2-ynoyl)piperidin-3-ylamino)-1H-pyrazolo[3,4-b]pyridin-4-yloxy)-N-(4-methylpyridin-2-yl)benzamide]	–	–
< 100 nM	< 100 nM	< 100 nM	100 to 1000 nM	C=CC(=O)N1CCC[C@@H](Nc2n[nH]c3nccc(Oc4ccc(Oc5ccccc5)cc4)c23)C1 [compound 6, 1-[(3R)-3-{[4-(4-phenoxyphenoxy)-1H-pyrazolo[3,4-b]pyridin-3-yl]amino}piperidin-1-yl]prop-2-en-1-one]	–	–
1000 to 10000 nM	< 100 nM	100 to 1000 nM	> 10000 nM	O=C(Nc1cc(C(F)(F)F)ccn1)c1ccc(Oc2ccnc3[nH]nc(N[C@@H]4CCCN(C(=O)C5CC5)C4)c23)cc1 [compound 173]	–	–
100 to 1000 nM	< 100 nM	1000 to 10000 nM	1000 to 10000 nM	C=CC(=O)N1CC[C@@H](Nc2n[nH]c3nccc(Oc4ccc(Cl)cc4)c23)C1 [compound 1]	–	–
100 to 1000 nM	< 100 nM	< 100 nM	> 10000 nM	CN(C)CCCC(=O)N1CCC[C@@H](Nc2n[nH]c3nccc(Oc4ccc(C(=O)Nc5cc(C(F)(F)F)ccn5)cc4)c23)C1 [compound 161]	–	–
< 100 nM	< 100 nM	100 to 1000 nM	100 to 1000 nM	C=CC(=O)N1CCC[C@@H](Nc2n[nH]c3nccc(Oc4ccc(C(=O)Nc5cc(C(F)(F)F)ccn5)cc4)c23)C1 [compound 203, 4-[(3-{[(3R)-1-(prop-2-enoyl)piperidin-3-yl]amino}-1H-pyrazoo[3,4-b]pyridin-4-yl)oxy]-N-[4-(trifluoromethyl)pyridin-2-yl]benzamide]	–	–
< 100 nM	< 100 nM	< 100 nM	< 100 nM	C=CC(=O)N1CCC[C@@H](Nc2n[nH]c3nccc(Oc4cccc(C(=O)Nc5ccc(C(C)C)c(C)c5)c4)c23)C1 [compound 250, (R)-3-(3-(1-acryloylpiperidin-3-ylamino)-1H-pyrazolo[3,4-b]pyridin-4-yloxy)-N-(4-isopropyl-3-methylphenyl)benzamide]	–	–
1000 to 10000 nM	100 to 1000 nM	< 100 nM	1000 to 10000 nM	CC(=O)N1CC[C@H](Nc2n[nH]c3nccc(Oc4cccc(C(=O)Nc5ccc(C(C)C)c(C)c5)c4)c23)C1 [compound 124, 3-[(3-{[(3S)-1-acetylpyrrolidin-3-yl]amino}-1H-pyrazolo[3,4-b]pyridin-4-yl)oxy]-N-[3-methyl-4-(propan-2-yl)phenyl]benzamide]	–	–
100 to 1000 nM	< 100 nM	100 to 1000 nM	< 100 nM	C=CC(=O)N1CCC[C@@H](Nc2n[nH]c3nccc(Oc4ccc(C(=O)Nc5nc(C)c(C)s5)cc4)c23)C1 [compound 146]	–	–
